According to US20250352663A1 (priority 2022, published 2025):

Key:
human tumor cells = settings: cited from earlier work
B16-F10 melanoma cells = assay: B16-F10 cell growth / proliferation monitoring; format: cell-based; settings: eATP, 2 mM, compared with AuNC@ATP 2.25 μM
tumor = settings: intraperitoneal injection of ATP (50 mM); cited from earlier work
[1] = tested on: human prostate cancer xenografts; settings: daily intraperitoneal administration of ATP (25 mM); cited from earlier work

Row | SMILES | growth of human tumor cells (cell cycle) (human tumor cells) | inhibiting B16-F10 cell proliferation (B16-F10 melanoma cells) | tumor size (tumor) | tumor regression [1]
1 | Nc1ncnc2c1ncn2[C@@H]1O[C@H](COP(=O)(O)OP(=O)(O)O)[C@@H](O)[C@H]1O [ADP] | arrest of growth in the S phase | – | – | –
2 | Nc1ncnc2c1ncn2[C@@H]1O[C@H](COP(=O)(O)OP(=O)(O)OP(=O)(O)O)[C@@H](O)[C@H]1O [free ATP, Adenosine triphosphate] | arrest of growth in the S phase | does not achieve the same level of effectiveness | effectively reduced tumor size | significant tumor regression
